ChEMBL document CHEMBL2146467, “Generation and exploration of new classes of antitubercular agents: The optimization of oxazolines, oxazoles, thiazolines, thiazoles to imidazo[1,2-a]pyridines and isomeric 5,6-fused scaffolds” (Bioorg Med Chem, 2012)
Values after ≈ are worked out from the molar mass of the structure shown.

System: Mycobacterium tuberculosis
Experiment: Antimycobacterial activity against Mycobacterium bovis BCG
Format: functional
Details: variant bovis BCG

Cc1ccn2c(C(=O)NCc3ccccc3)c(C)nc2c1 showed an MIC of 0.3 µM (≈ 0.0838 µg/mL).
